# Results as given in US20260225889A1, “Spherical nanoparticles for improved composite materials” (Stichting Radboud universitair medisch centrum, priority 2023, published 2026).
# Key:
# [1] = tested on: intracellular S. aureus-mCherry; format: cell-based, S. aureus strain RN4220; conditions: 24 h; for survival of intracellular S. aureus: systemically delivered: dissolved zinc (300 μM), dissolved vancomycin (5.5 μM), versus 'no treatment'
# Protocol: S. aureus strain RN4220 expressing mCherry fluorescent protein (S. aureus-mCherry) was used for in vitro studies. Bacterial inoculums were prepared by culturing S. aureus-mCherry in tryptic soy broth (TSB; BD Difco, Leeuwarden, the Netherlands) supplemented with 10 μg/mL chloramphenicol (Merck) shaking at 120 rpm and 37° C. to the mid logarithmic growth phase. S. aureus-mCherry bacteria were pelleted by centrifugation (3000 g, 10 min), re-suspended in 1 mL of NaCl and 0.25 mL human serum (H1 serum, Bio Whittaker, MD, USA) and incubated for 20 min. The inoculum was adjusted to 10^8 CFU/mL with RPMI based on the optical density value at wavelength 620 (OD620). The human THP-1 macrophages were seeded as described above in 96-well plates at a concentration of 100.000 cells/cm^2. After 48 h, the media was replaced by 1 μL of the bacterial inoculum (bacteria to cell ratio of 1:1) and incubated for 45 min at 37° C. and 5% CO2. Afterwards, the human THP-1 macrophages were washed three times with 50 μL PBS and one time with 200 μL PBS to prevent carry-over of planktonic S. aureus-mCherry. RPMI media supplemented with 5 μg/mL gentamycin (Sigma-Aldrich) was added to control the extracellular growth of S. aureus-mCherry.
# The human THP-1 macrophages were allowed to phagocytose S. aureus-mCherry as described above. To investigate the intracellular killing efficiency of the synthesized NPs, RPMI media with 5 μg/ml gentamycin was enriched with 50 μg/ml of synthesized NPs for 24 h. Moreover, to assess the synergistic effect of zinc and vancomycin, a combination of 20 mol % ZnHA and VGelA NPs was added to the co-culture in different concentrations. After 24 h, the human THP-1 macrophages were lysed with 100 μl of 0.025% TritonX-100 to determine the amount of intracellular S. aureus-mCherry number. After lysis, the solution was serial diluted in PBS and spot-plated on agar plates. […] Additionally, the viability of the THP-1 macrophages is assessed using a LIVE/DEAD cell viability assay (Invitrogen, Waltham, MA, USA) as mentioned above. […]
# human THP-1 macrophages [2] = test: LIVE/DEAD cell viability assay of THP-1 macrophages with phagocytosed S. aureus; format: cell-based; conditions: systemic zinc 75 μM, 24 h
# Protocol: Additionally, a LIVE/DEAD cell viability assay (Invitrogen, Waltham, MA, USA) was used according to the manufacturer's instructions to visualize the cells after 24 h of phagocytosis. In brief, 100 μL of 4 μM Ethidium homodimer 1 and 2 μM calcein AM solution in PBS was added to the human THP-1 macrophages and incubated for 30 min before visualization using a Leica SP8-X DLS Lightsheet microscope (Leica Microsystems, Wetzlar, Germany). Human THP-1 macrophages without phagocytosed S. aureus-mCherry served as negative control. The amount of living cells were quantified by counting using three LIVE/DEAD images and compared between macrophages with and without phagocytosed S. aureus.
# The human THP-1 macrophages were allowed to phagocytose S. aureus-mCherry as described above. To investigate the intracellular killing efficiency of the synthesized NPs, RPMI media with 5 μg/ml gentamycin was enriched with 50 μg/ml of synthesized NPs for 24 h. Moreover, to assess the synergistic effect of zinc and vancomycin, a combination of 20 mol % ZnHA and VGelA NPs was added to the co-culture in different concentrations. […] Additionally, the viability of the THP-1 macrophages is assessed using a LIVE/DEAD cell viability assay (Invitrogen, Waltham, MA, USA) as mentioned above. […]
# human THP-1 macrophages [3] = test: Internalization of labelled nanoparticles in human THP-1 macrophages (confocal overlay); format: cell-based
# Protocol: For cell culture experiments, human THP-1 macrophages (American Type Culture Collection, Manassas, USA) were maintained in Roswell Park Memorial Institute (RPMI) 1640 media supplemented with 2 mM Glutamine (GIBCO, New York, NY, USA) and 100/fetal bovine serum (FBS, Sigma-Aldrich). The human THP-1 macrophages were sub-cultured once a week and incubated at 37° C. in a humidified atmosphere containing 5% CO2. The human THP-1 macrophages were passaged by centrifugation when reaching a confluency of 10^6 cells/mL. In the following experiments, cell seeding is performed with media enriched with 50 ng/ml phorbol 12-myristate 13-acetate (PMA; Sigma-Aldrich) to allow for adherence of cells over 48 h.
# Human THP-1 macrophages were cultured as described above and seeded with a density of 200.000 cells/cm^2 in an 8-well μ-slide (ibidi, Gräfelfing, Germany) for 48 h. Labeled NPs were diluted in RPMI cell culture medium to reach a final concentration of 50 μg/mL. Afterwards 200 μL particle suspension was added to the human THP-1 macrophages. […] The image analysis software Fiji was used for the reconstruction of images, and the plugin “co-localization finder” was used to visualize the overlaying signal in white and quantify the fluorescence overlay of different channels.
Compound,survival of intracellular S. aureus [1],effect on intracellular S. aureus survival ([1]; systemic zinc 75 μM),amount of alive cells (LIVE/DEAD images) (human THP-1 macrophages [2]),"internalization by human THP-1 macrophages (human THP-1 macrophages [3]; dissolved, no NPs)","Overlay (%) (human THP-1 macrophages [3]; fluorescently labelled NPs 50 μg/mL in THP-1 macrophages, confocal co-localization)"
CN[C@H](CC(C)C)C(=O)N[C@H]1C(=O)N[C@@H](CC(N)=O)C(=O)N[C@H]2C(=O)N[C@H]3C(=O)N[C@H](C(=O)N[C@H](C(=O)O)c4cc(O)cc(O)c4-c4cc3ccc4O)[C@H](O)c3ccc(c(Cl)c3)Oc3cc2cc(c3O[C@@H]2O[C@H](CO)[C@@H](O)[C@H](O)[C@H]2O[C@H]2C[C@](C)(N)[C@H](O)[C@H](C)O2)Oc2ccc(cc2Cl)[C@H]1O [vancomycin],did not cause a significant reduction,,,,
[Zn] [zinc],did not cause a significant reduction,reduction of intracellular S. aureus survival,visually decreased the amount of alive cells,,
FITC-vancomycin,,,,inability,0%
